Biological target: Epidermal growth factor receptor (Homo sapiens, UniProt P00533)
Assay: Inhibition of EGFR-mediated polyGAT phosphorylation at 10 uM

Sequence of Epidermal growth factor receptor (P00533 whole entry): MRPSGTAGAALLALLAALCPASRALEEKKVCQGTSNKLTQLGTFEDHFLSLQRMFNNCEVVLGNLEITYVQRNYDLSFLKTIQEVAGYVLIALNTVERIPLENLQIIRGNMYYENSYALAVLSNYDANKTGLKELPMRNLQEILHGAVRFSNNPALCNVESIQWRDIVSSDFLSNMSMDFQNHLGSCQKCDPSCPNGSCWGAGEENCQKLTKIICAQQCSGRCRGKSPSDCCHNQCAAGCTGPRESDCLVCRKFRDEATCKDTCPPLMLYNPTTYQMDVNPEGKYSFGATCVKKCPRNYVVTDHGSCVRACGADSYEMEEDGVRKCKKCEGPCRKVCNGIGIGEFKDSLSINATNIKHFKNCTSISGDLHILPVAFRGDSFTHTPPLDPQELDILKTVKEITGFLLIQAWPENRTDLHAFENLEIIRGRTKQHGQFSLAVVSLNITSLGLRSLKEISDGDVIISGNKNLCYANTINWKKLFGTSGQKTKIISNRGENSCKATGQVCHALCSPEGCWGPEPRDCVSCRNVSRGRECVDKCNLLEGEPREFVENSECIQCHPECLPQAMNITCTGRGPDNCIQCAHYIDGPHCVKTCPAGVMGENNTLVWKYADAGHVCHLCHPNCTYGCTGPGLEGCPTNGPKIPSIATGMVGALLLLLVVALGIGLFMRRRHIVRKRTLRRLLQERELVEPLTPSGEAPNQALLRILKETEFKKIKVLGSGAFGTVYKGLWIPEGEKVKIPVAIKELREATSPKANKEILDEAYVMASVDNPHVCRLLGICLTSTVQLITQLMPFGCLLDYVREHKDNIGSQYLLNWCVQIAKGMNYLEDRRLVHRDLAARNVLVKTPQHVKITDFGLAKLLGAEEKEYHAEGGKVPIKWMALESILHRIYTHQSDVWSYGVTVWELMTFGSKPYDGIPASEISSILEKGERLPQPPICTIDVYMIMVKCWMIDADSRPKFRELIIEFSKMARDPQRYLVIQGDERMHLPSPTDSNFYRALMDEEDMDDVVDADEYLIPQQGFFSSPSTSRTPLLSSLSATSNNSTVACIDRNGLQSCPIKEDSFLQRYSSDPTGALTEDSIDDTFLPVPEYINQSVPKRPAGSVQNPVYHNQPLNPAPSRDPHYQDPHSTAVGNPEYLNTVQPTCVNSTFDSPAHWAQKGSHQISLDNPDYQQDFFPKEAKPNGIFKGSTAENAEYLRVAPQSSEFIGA

**Q.** For `O=C1NC(=O)N(CCc2ccccc2)/C1=C/c1ccc(O)cc1`, which IC50 is on record?
**A.** 710 nM
